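Exposure lasted 48 hours, with cells grown in 96-well plates and compounds tested at five concentrations. GI50: concentration for 50% inhibition of growth.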 Activity calls are given as the source filed them. Cut-off read from the data, not from the text of the source: active = GI50 up to about 1.1 µM and inactive = higher.
How the values were obtained:
Assay in all cases: inhibition of tumour cell growth, NCI panel, 48 h
HCC 2998 = system: HCC 2998
IGROV-1 = system: IGROV-1
LOX IMVI = system: LOX IMVI
MDA-MB-231 = system: MDA-MB-231
NCI-H460 = system: NCI-H460
PC-3 = system: PC-3
RPMI-8226 = system: RPMI-8226
SK-MEL-2 = system: SK-MEL-2
SK-OV-3 = system: SK-OV-3
SN12C = system: SN12C
SNB-75 = system: SNB-75
SW-620 = system: SW-620
A498 = system: A498
HL-60 = system: HL-60
MCF7 = system: MCF7

SMILES	GI50 (HCC 2998)	GI50 (IGROV-1)	GI50 (LOX IMVI)	GI50 (MDA-MB-231)	GI50 (NCI-H460)	GI50 (PC-3)	GI50 (RPMI-8226)	GI50 (SK-MEL-2)	GI50 (SK-OV-3)	GI50 (SN12C)	GI50 (SNB-75)	GI50 (SW-620)	GI50 (A498)	GI50 (HL-60)	GI50 (MCF7)
N=c1c2ccccc2nc2oc3ccc(Cl)cc3n12	> 100 µM (inactive)	16.4 µM (inactive)	3.21 µM (inactive)	25.6 µM (inactive)	25.8 µM (inactive)	33.1 µM (inactive)	4.4 µM (inactive)	20.6 µM (inactive)	13.1 µM (inactive)	9.46 µM (inactive)	2.75 µM (inactive)	5.62 µM (inactive)			
Fc1ccc2c(c1)SC1=Nc3sc4cc(F)ccc4[n+]3CN12	10.5 µM (inactive)	3.91 µM (inactive)	18.4 µM (inactive)	13.9 µM (inactive)	25.5 µM (inactive)	21.4 µM (inactive)	0.437 µM (active)	21.4 µM (inactive)	22.4 µM (inactive)	17.3 µM (inactive)	15.9 µM (inactive)	27.3 µM (inactive)	12.7 µM (inactive)	< 0.01 µM (active)	21.6 µM (inactive)
CC1CN=C(N(C(=O)Nc2ccccc2)C2CCCCC2)S1 (stereo unspecified)	18.3 µM (inactive)	17.8 µM (inactive)	13.5 µM (inactive)	15.4 µM (inactive)	16.6 µM (inactive)	15.5 µM (inactive)	18.8 µM (inactive)	15.2 µM (inactive)	31.3 µM (inactive)	16.6 µM (inactive)	12.6 µM (inactive)	14.1 µM (inactive)	14.4 µM (inactive)	14.8 µM (inactive)	16.6 µM (inactive)
O=C(N/N=C/c1ccccc1)c1c(F)c(F)c(F)c(F)c1F	> 100 µM (inactive)	> 100 µM (inactive)	> 100 µM (inactive)	> 100 µM (inactive)	> 100 µM (inactive)	> 100 µM (inactive)	> 100 µM (inactive)	> 100 µM (inactive)	> 100 µM (inactive)	> 100 µM (inactive)	> 100 µM (inactive)	96.8 µM (inactive)	> 100 µM (inactive)	> 100 µM (inactive)	
CCOC(=O)c1c(N)sc2c1C(C(=O)OCC)CCC2 (stereo unspecified)	> 100 µM (inactive)	> 100 µM (inactive)		> 100 µM (inactive)	> 100 µM (inactive)	68.1 µM (inactive)	> 100 µM (inactive)	> 100 µM (inactive)		> 100 µM (inactive)	> 100 µM (inactive)	> 100 µM (inactive)	12.1 µM (inactive)	53.3 µM (inactive)	> 100 µM (inactive)
O=C(O)CN(CC(=O)O)C(C(=O)O)c1ccccc1 (stereo unspecified)	> 100 µM (inactive)	> 100 µM (inactive)	> 100 µM (inactive)	> 100 µM (inactive)	> 100 µM (inactive)	> 100 µM (inactive)	> 100 µM (inactive)	> 100 µM (inactive)	> 100 µM (inactive)	> 100 µM (inactive)	> 100 µM (inactive)	> 100 µM (inactive)	> 100 µM (inactive)	> 100 µM (inactive)	> 100 µM (inactive)
CC1CC/C(=C\c2ccc(Cl)cc2)C(=O)/C1=C\c1ccc(Cl)cc1 (stereo unspecified)		22.4 µM (inactive)	31.8 µM (inactive)	28.4 µM (inactive)		34.4 µM (inactive)		20.4 µM (inactive)	> 100 µM (inactive)	30.8 µM (inactive)	49.2 µM (inactive)	41.3 µM (inactive)	1.63 µM (inactive)		36.2 µM (inactive)
COC(=O)C1=C(\c2ccccc2)c2ccccc2C(=O)N(C2CCCCC2)/C=C\1	10.7 µM (inactive)	25.8 µM (inactive)	14.2 µM (inactive)	17.2 µM (inactive)	16.1 µM (inactive)	10.5 µM (inactive)		12.9 µM (inactive)	74.1 µM (inactive)	28.3 µM (inactive)	65.6 µM (inactive)	28.6 µM (inactive)	30.1 µM (inactive)	21.3 µM (inactive)	19.8 µM (inactive)
FC(F)(F)c1ccc(Cc2nc3cc4ccccc4cc3[nH]2)cc1	> 100 µM (inactive)	16 µM (inactive)	77.8 µM (inactive)	> 100 µM (inactive)	> 100 µM (inactive)	> 100 µM (inactive)	6.97 µM (inactive)	> 100 µM (inactive)		> 100 µM (inactive)	3.78 µM (inactive)	> 100 µM (inactive)	> 100 µM (inactive)	93.1 µM (inactive)	92.3 µM (inactive)
Cc1ccc(NC(=O)C(Cc2c[nH]c3ccccc23)NC(=O)Oc2ccccc2)cc1C (stereo unspecified)		30.5 µM (inactive)	47.9 µM (inactive)	> 100 µM (inactive)	39.4 µM (inactive)	37.3 µM (inactive)	26.7 µM (inactive)	85.9 µM (inactive)	> 100 µM (inactive)	64.1 µM (inactive)		> 100 µM (inactive)	27.4 µM (inactive)	40.6 µM (inactive)	41.2 µM (inactive)
CCOC(=O)c1c(C)n(-c2ccc(C)cc2)c(=O)c2ccccc2c(=O)c2c(=O)ccc(=O)c1=2	14.3 µM (inactive)	37.5 µM (inactive)	14.7 µM (inactive)	16.1 µM (inactive)	19.4 µM (inactive)	17.1 µM (inactive)	4.7 µM (inactive)	27 µM (inactive)	27 µM (inactive)	21.7 µM (inactive)	23.3 µM (inactive)	25.6 µM (inactive)		14.1 µM (inactive)	18.8 µM (inactive)
O=C1c2ccccc2C(=O)N1/N=C1/SC(=N\c2ccccc2)/C(=N/c2ccccc2)N1c1ccccc1	> 48.5 µM (inactive)	> 78.7 µM (inactive)	> 100 µM (inactive)	> 10 µM (inactive)	> 61.8 µM (inactive)	> 52.6 µM (inactive)	> 21.1 µM (inactive)	> 55.2 µM (inactive)		> 39.3 µM (inactive)	19.9 µM (inactive)	> 61.7 µM (inactive)	19.7 µM (inactive)	> 40.4 µM (inactive)	> 68.1 µM (inactive)
Cc1cc2cc3c(C)cc(=O)oc3c(C)c2o1 [TRIOXSALEN]	> 100 µM (inactive)	> 100 µM (inactive)	> 100 µM (inactive)	> 100 µM (inactive)	> 100 µM (inactive)	> 100 µM (inactive)	> 100 µM (inactive)	> 100 µM (inactive)		> 100 µM (inactive)	> 100 µM (inactive)	> 100 µM (inactive)	> 100 µM (inactive)	> 100 µM (inactive)	> 100 µM (inactive)
N#CCc1c(F)c(F)c(F)c(F)c1F	> 100 µM (inactive)	> 100 µM (inactive)	> 100 µM (inactive)	> 100 µM (inactive)		> 100 µM (inactive)	> 100 µM (inactive)		> 100 µM (inactive)	> 100 µM (inactive)		> 100 µM (inactive)	> 100 µM (inactive)	> 100 µM (inactive)	> 100 µM (inactive)
COc1ccc(-c2c3c(nc4nc(SCCc5ccccc5)nc(N)c24)CCCC3)cc1OC		> 100 µM (inactive)	> 100 µM (inactive)	> 100 µM (inactive)	> 100 µM (inactive)	> 100 µM (inactive)	> 100 µM (inactive)		> 100 µM (inactive)	> 100 µM (inactive)	20.5 µM (inactive)	> 100 µM (inactive)		> 100 µM (inactive)	> 100 µM (inactive)
Cc1ccc(S(=O)(=O)N2c3ccccc3[C@H]3CCc4c([nH]c5ccccc45)[C@H]32)cc1	> 100 µM (inactive)	0.789 µM (active)	> 100 µM (inactive)	0.65 µM (active)	> 100 µM (inactive)	> 100 µM (inactive)	29.2 µM (inactive)	> 100 µM (inactive)	> 100 µM (inactive)	> 100 µM (inactive)	> 100 µM (inactive)	> 100 µM (inactive)			> 100 µM (inactive)
COC(=O)c1ccc(CN2CCc3c([nH]c4ccccc34)C2CO)o1 (stereo unspecified)	> 10 µM (inactive)	> 10 µM (inactive)		> 10 µM (inactive)		> 10 µM (inactive)	> 10 µM (inactive)		> 10 µM (inactive)	> 10 µM (inactive)	> 10 µM (inactive)	> 10 µM (inactive)		> 10 µM (inactive)	> 10 µM (inactive)
COc1ccc(/N=C(\C)c2ccncc2)cc1	> 100 µM (inactive)	> 100 µM (inactive)	> 100 µM (inactive)	> 100 µM (inactive)	> 100 µM (inactive)	> 100 µM (inactive)	16.7 µM (inactive)	> 100 µM (inactive)	> 100 µM (inactive)	> 100 µM (inactive)	> 100 µM (inactive)	86.5 µM (inactive)	40.9 µM (inactive)		66.7 µM (inactive)
CC[C@]12C=CCN3CC[C@@]4(c5cc(Br)c(OC)c([N+](=O)[O-])c5N(C)[C@H]4[C@@](O)(C(=O)OC)[C@@H]1OC(C)=O)[C@@H]32		24.1 µM (inactive)	34.6 µM (inactive)	> 100 µM (inactive)	40.8 µM (inactive)	40.4 µM (inactive)	6.52 µM (inactive)	74.1 µM (inactive)	> 100 µM (inactive)	88.7 µM (inactive)	30.5 µM (inactive)	23.8 µM (inactive)	44.5 µM (inactive)	33.7 µM (inactive)	37.4 µM (inactive)
COc1ccc(C(=CCC(C)C2CCC3[C@@H]4C(OC(C)=O)CC5CC(OC(C)=O)CC[C@]5(C)C4CC(OC(C)=O)[C@]23C)c2ccc(OC)cc2)cc1 (stereo partly specified)	> 100 µM (inactive)	> 100 µM (inactive)		> 100 µM (inactive)	55.2 µM (inactive)	19.5 µM (inactive)	29.2 µM (inactive)		> 100 µM (inactive)	> 100 µM (inactive)	34.8 µM (inactive)	91.4 µM (inactive)		8.02 µM (inactive)	20.3 µM (inactive)
